# US20250011348A1, “Synthesis Process of X-IPM, Stable Crystal Form and Application Thereof” (ASCENTAWITS PHARMACEUTICALS, LTD., priority 2023, published 2025)
# Like-named read-outs stand apart in the source and are kept apart here.
# Protocol: On different days, samples were taken at the same time for analysis and detection of related substances, and their contents were recorded.
substance,measurement,setting,value
isophosphoramide nitrogen mustard [Br-IPM],Stability of the Br-IPM crystals on storage (in words),placed at 40° C.,unstable
same,Br-IPM content in the analysis of related substances,"stored at 2-8° C., day 0",93.23%
same,Br-IPM content in the analysis of related substances,"stored at 2-8° C., day 3",93.28%
same,Br-IPM content in the analysis of related substances,"stored at 2-8° C., day 4",95.06%
same,Br-IPM content in the analysis of related substances,"stored at 2-8° C., day 5",94.29%
same,Br-IPM content in the analysis of related substances,"stored at 2-8° C., day 6",94.56%
same,Br-IPM content in the analysis of related substances,"stored at 2-8° C., day 7",95.57%
same,Br-IPM content in the analysis of related substances,"stored at 2-8° C., day 10",95.17%
same,Br-IPM content in the analysis of related substances,"stored at 2-8° C., day 11",95.07%
same,Br-IPM content in the analysis of related substances,"stored at 2-8° C., day 12",95.07%
same,Br-IPM content in the analysis of related substances,"stored at 2-8° C., day 13",95.44%
same,Br-IPM content in the analysis of related substances,"stored at 2-8° C., day 14",95.25%
same,Br-IPM content in the analysis of related substances,"stored at 2-8° C., day 17",95.76%
same,Br-IPM content in the analysis of related substances,"stored at 2-8° C., day 21",95.19%
same,Br-IPM content in the analysis of related substances,"stored at 2-8° C., day 28",96.22%
same,Br-IPM content in the analysis of related substances,"stored at 2-8° C., day 35",95.09%
same,Time for which the Br-IPM crystals are relatively stable / can be stored,stored at 25° C. (room temperature),28 days
same,Br-IPM content in the analysis of related substances,"stored at 25° C., day 0",93.23%
same,Br-IPM content in the analysis of related substances,"stored at 25° C., day 3",94.17%
same,Br-IPM content in the analysis of related substances,"stored at 25° C., day 4",94.89%
same,Br-IPM content in the analysis of related substances,"stored at 25° C., day 5",94.53%
same,Br-IPM content in the analysis of related substances,"stored at 25° C., day 6",94.32%
same,Br-IPM content in the analysis of related substances,"stored at 25° C., day 7",93.86%
same,Br-IPM content in the analysis of related substances,"stored at 25° C., day 10",94.64%
same,Br-IPM content in the analysis of related substances,"stored at 25° C., day 11",95.25%
same,Br-IPM content in the analysis of related substances,"stored at 25° C., day 12",94.97%
same,Br-IPM content in the analysis of related substances,"stored at 25° C., day 13",95.28%
same,Br-IPM content in the analysis of related substances,"stored at 25° C., day 14",94.61%
same,Br-IPM content in the analysis of related substances,"stored at 25° C., day 17",94.75%
same,Br-IPM content in the analysis of related substances,"stored at 25° C., day 21",93.81%
same,Br-IPM content in the analysis of related substances,"stored at 25° C., day 28",94.01%
same,Br-IPM content in the analysis of related substances,"stored at 25° C., day 35",91.42%
same,Br-IPM content in the analysis of related substances,"stored at 40° C., day 0",93.23%
same,Br-IPM content in the analysis of related substances,"stored at 40° C., day 3",86.36%
same,Br-IPM content in the analysis of related substances,"stored at −5° C., day 0",93.23%
same,Br-IPM content in the analysis of related substances,"stored at −5° C., day 3",94.65%
same,Br-IPM content in the analysis of related substances,"stored at −5° C., day 4",95.12%
same,Br-IPM content in the analysis of related substances,"stored at −5° C., day 5",94.07%
same,Br-IPM content in the analysis of related substances,"stored at −5° C., day 6",95.48%
same,Br-IPM content in the analysis of related substances,"stored at −5° C., day 7",94.96%
same,Br-IPM content in the analysis of related substances,"stored at −5° C., day 10",95.03%
same,Br-IPM content in the analysis of related substances,"stored at −5° C., day 11",95.50%
same,Br-IPM content in the analysis of related substances,"stored at −5° C., day 12",95.04%
same,Br-IPM content in the analysis of related substances,"stored at −5° C., day 13",95.23%
same,Br-IPM content in the analysis of related substances,"stored at −5° C., day 14",95.28%
same,Br-IPM content in the analysis of related substances,"stored at −5° C., day 17",95.07%
same,Br-IPM content in the analysis of related substances,"stored at −5° C., day 21",95.30%
same,Br-IPM content in the analysis of related substances,"stored at −5° C., day 28",94.83%
same,Br-IPM content in the analysis of related substances,"stored at −5° C., day 35",94.64%
